{"source": "ChEMBL document CHEMBL4610081", "about": "“Anti-inflammatory Metabolites from Chaetomium nigricolor” (J Nat Prod, 2020)", "key": {"RAW264.7 [1]": {"test_system": "RAW264.7", "assay": "Trans-suppression of NFkappaB in mouse RAW264.7 cells assessed as LPS-induced cytosol-p65 level at 2.5 uM preincubated for 3 hrs followed by LPS-stimulation and measured after 1 hr by Western blot analysis (reference value: 0.09)", "format": "cell-based"}, "RAW264.7 [2]": {"test_system": "RAW264.7", "assay": "Inhibition of LPS-induced ERK phosphorylation in mouse RAW264.7 cell at 5 uM preincubated for 3 hrs followed by LPS-stimulation and measured after 1 hr by Western blot analysis (reference value: 6.92)", "format": "cell-based"}, "RAW264.7 [3]": {"test_system": "RAW264.7", "assay": "Trans-suppression of NFkappaB in mouse RAW264.7 cells assessed as LPS-induced IKB-apha phosphorylation at 2.5 uM preincubated for 3 hrs followed by LPS-stimulation and measured after 1 hr by Western blot analysis (reference value: 6.04)", "format": "cell-based"}, "RAW264.7 [4]": {"test_system": "RAW264.7", "assay": "Inhibition of LPS-induced ERK protein expression in mouse RAW264.7 cell at 10 uM preincubated for 3 hrs followed by LPS-stimulation and measured after 1 hr by Western blot analysis (reference value: 1.13)", "format": "functional"}, "RAW264.7 [5]": {"test_system": "RAW264.7", "assay": "Antiinflammatory activity against mouse RAW264.7 cells assessed as reduction in LPS-induced IL-1beta mRNA expression preincubated for 3 hrs followed by LPS-stimulation and measured after 12 hrs by RT-PCR analysis", "format": "functional, cell-based"}, "RAW264.7 [6]": {"test_system": "RAW264.7", "assay": "Trans-suppression of NFkappaB in mouse RAW264.7 cells assessed as LPS-induced cytosol-p65 level at 10 uM preincubated for 3 hrs followed by LPS-stimulation and measured after 1 hr by Western blot analysis (reference value: 0.09)", "format": "cell-based"}, "RAW264.7 [7]": {"test_system": "RAW264.7", "assay": "Trans-suppression of NFkappaB in mouse RAW264.7 cells assessed as LPS-induced nuclear-p50 level at 10 uM preincubated for 3 hrs followed by LPS-stimulation and measured after 1 hr by Western blot analysis (reference value: 3.2)", "format": "cell-based"}, "RAW264.7 [8]": {"test_system": "RAW264.7", "assay": "Trans-suppression of NFkappaB in mouse RAW264.7 cells assessed as LPS-induced IKB-apha phosphorylation at 10 uM preincubated for 3 hrs followed by LPS-stimulation and measured after 1 hr by Western blot analysis (reference value: 6.04)", "format": "cell-based"}, "RAW264.7 [9]": {"test_system": "RAW264.7", "assay": "Antiinflammatory activity against mouse RAW264.7 cells assessed as reduction in LPS-induced IL6 mRNA expression preincubated for 3 hrs followed by LPS-stimulation and measured after 12 hrs by RT-PCR analysis", "format": "functional, cell-based"}, "RAW264.7 [10]": {"test_system": "RAW264.7", "assay": "Inhibition of LPS-induced ERK phosphorylation in mouse RAW264.7 cell at 2.5 uM preincubated for 3 hrs followed by LPS-stimulation and measured after 1 hr by Western blot analysis (reference value: 6.92)", "format": "cell-based"}, "RAW264.7 [11]": {"test_system": "RAW264.7", "assay": "Trans-suppression of NFkappaB in mouse RAW264.7 cells assessed as LPS-induced IKB-apha degradation at 5 uM preincubated for 3 hrs followed by LPS-stimulation and measured after 1 hr by Western blot analysis (reference value: 0.29)", "format": "cell-based"}, "RAW264.7 [12]": {"test_system": "RAW264.7", "assay": "Trans-suppression of NFkappaB in mouse RAW264.7 cells assessed as reduction in LPS-induced DNA binding at 2.5 to 10 uM preincubated for 3 hrs followed by LPS-stimulation and measured after 1 hr by TransAM assay", "format": "cell-based"}, "RAW264.7 [13]": {"test_system": "RAW264.7", "assay": "Trans-suppression of NFkappaB in mouse RAW264.7 cells assessed as LPS-induced nuclear-p65 level at 2.5 uM preincubated for 3 hrs followed by LPS-stimulation and measured after 1 hr by Western blot analysis (reference value: 3.3)", "format": "cell-based"}, "RAW264.7 [14]": {"test_system": "RAW264.7", "assay": "Antiinflammatory activity against mouse RAW264.7 cells assessed as reduction in LPS-induced IL-12 mRNA expression preincubated for 3 hrs followed by LPS-stimulation and measured after 12 hrs by RT-PCR analysis", "format": "functional, cell-based"}, "RAW264.7 [15]": {"test_system": "RAW264.7", "assay": "Trans-suppression of NFkappaB in mouse RAW264.7 cells assessed as LPS-induced IKB-apha degradation at 10 uM preincubated for 3 hrs followed by LPS-stimulation and measured after 1 hr by Western blot analysis (reference value: 0.29)", "format": "cell-based"}, "RAW264.7 [16]": {"test_system": "RAW264.7", "assay": "Antiinflammatory activity against mouse RAW264.7 cells assessed as LPS-induced INOS mRNA expression at 2.5 uM preincubated for 3 hrs followed by LPS-stimulation and measured after 24 hrs by RT-PCR analysis (reference value: 8.2)", "format": "functional"}, "RAW264.7 [17]": {"test_system": "RAW264.7", "assay": "Trans-suppression of NFkappaB in mouse RAW264.7 cells assessed as LPS-induced nuclear-p50 level at 5 uM preincubated for 3 hrs followed by LPS-stimulation and measured after 1 hr by Western blot analysis (reference value: 3.2)", "format": "cell-based"}, "RAW264.7 [18]": {"test_system": "RAW264.7", "assay": "Antiinflammatory activity against mouse RAW264.7 cells assessed as LPS-induced COX-2 mRNA expression at 10 uM preincubated for 3 hrs followed by LPS-stimulation and measured after 24 hrs by RT-PCR analysis (reference value: 14.39)", "format": "functional"}, "RAW264.7 [19]": {"test_system": "RAW264.7", "assay": "Antiinflammatory activity against mouse RAW264.7 cells assessed as LPS-induced COX-2 mRNA expression at 5 uM preincubated for 3 hrs followed by LPS-stimulation and measured after 24 hrs by RT-PCR analysis (reference value: 14.39)", "format": "functional"}, "RAW264.7 [20]": {"test_system": "RAW264.7", "assay": "Antiinflammatory activity against mouse RAW264.7 cells assessed as LPS-induced INOS mRNA expression at 10 uM preincubated for 3 hrs followed by LPS-stimulation and measured after 24 hrs by RT-PCR analysis (reference value: 8.2)", "format": "functional"}, "RAW264.7 [21]": {"test_system": "RAW264.7", "assay": "Inhibition of LPS-induced ERK protein expression in mouse RAW264.7 cell at 2.5 uM preincubated for 3 hrs followed by LPS-stimulation and measured after 1 hr by Western blot analysis (reference value: 1.13)", "format": "functional"}, "RAW264.7 [22]": {"test_system": "RAW264.7", "assay": "Trans-suppression of NFkappaB in mouse RAW264.7 cells assessed as LPS-induced cytosol-p50 level at 10 uM preincubated for 3 hrs followed by LPS-stimulation and measured after 1 hr by Western blot analysis (reference value: 0.28)", "format": "cell-based"}, "[23]": {"molecular_target": "MAP kinase p38 (Mus musculus) (UniProt P47811+O08911+Q9WUI1+Q9Z1B7)", "assay": "Inhibition of LPS-induced p38 MAPK phosphorylation in mouse RAW264.7 cell at 2.5 uM preincubated for 3 hrs followed by LPS-stimulation and measured after 1 hr by Western blot analysis (reference value: 5.59)", "format": "cell-based"}, "RAW264.7 [24]": {"test_system": "RAW264.7", "assay": "Trans-suppression of NFkappaB in mouse RAW264.7 cells assessed as LPS-induced cytosol-p50 level at 5 uM preincubated for 3 hrs followed by LPS-stimulation and measured after 1 hr by Western blot analysis (reference value: 0.28)", "format": "cell-based"}, "RAW264.7 [25]": {"test_system": "RAW264.7", "assay": "Inhibition of LPS-induced p38 MAPK protein expression in mouse RAW264.7 cell at 10 uM preincubated for 3 hrs followed by LPS-stimulation and measured after 1 hr by Western blot analysis (reference value: 1.1)", "format": "functional"}, "RAW264.7 [26]": {"test_system": "RAW264.7", "assay": "Antiinflammatory activity against mouse RAW264.7 cells assessed as inhibition of LPS-induced PGE2 production preincubated for 3 hrs followed by LPS-stimulation and measured after 24 hrs by ELISA", "format": "functional, cell-based"}}, "note": "Calls of active or inactive are those of the source. The rule behind the calls is not given here.", "data": [{"smiles": "COc1cc(OC)c2c(O)c3c(=O)cc(C)oc3c(-c3c(O)cc4cc(O)c5c(=O)cc(C)oc5c4c3OC)c2c1", "note": "(atropisomer aS) [ASPERPYRONE A]", "values": [{"measurement": "fold change (FC)", "setting": "RAW264.7 [1]", "result": 0.42}, {"measurement": "fold change (FC)", "setting": "RAW264.7 [2]", "result": 7.31}, {"measurement": "fold change (FC)", "setting": "RAW264.7 [3]", "result": 2.93}, {"measurement": "fold change (FC)", "setting": "RAW264.7 [4]", "result": 1.1}, {"measurement": "Activity", "setting": "RAW264.7 [5]", "result": "Dose-dependent effect"}, {"measurement": "fold change (FC)", "setting": "RAW264.7 [6]", "result": 1.04}, {"measurement": "fold change (FC)", "setting": "RAW264.7 [7]", "result": 0.89}, {"measurement": "fold change (FC)", "setting": "RAW264.7 [8]", "result": 2.3}, {"measurement": "Activity", "setting": "RAW264.7 [9]", "result": "Dose-dependent effect"}, {"measurement": "fold change (FC)", "setting": "RAW264.7 [10]", "result": 7.21}, {"measurement": "fold change (FC)", "setting": "RAW264.7 [11]", "result": 0.68}, {"measurement": "Activity", "setting": "RAW264.7 [12]", "result": "Active"}, {"measurement": "fold change (FC)", "setting": "RAW264.7 [13]", "result": 3.28}, {"measurement": "Activity", "setting": "RAW264.7 [14]", "result": "Dose-dependent effect"}, {"measurement": "fold change (FC)", "setting": "RAW264.7 [15]", "result": 0.81}, {"measurement": "fold change (FC)", "setting": "RAW264.7 [16]", "result": 8.48}, {"measurement": "fold change (FC)", "setting": "RAW264.7 [17]", "result": 1.28}, {"measurement": "fold change (FC)", "setting": "RAW264.7 [18]", "result": 3.69}, {"measurement": "fold change (FC)", "setting": "RAW264.7 [19]", "result": 7.56}, {"measurement": "fold change (FC)", "setting": "RAW264.7 [20]", "result": 1.03}, {"measurement": "fold change (FC)", "setting": "RAW264.7 [21]", "result": 1.08}, {"measurement": "fold change (FC)", "setting": "RAW264.7 [22]", "result": 1.12}, {"measurement": "fold change (FC)", "setting": "[23]", "result": 5.63}, {"measurement": "fold change (FC)", "setting": "RAW264.7 [24]", "result": 0.87}, {"measurement": "fold change (FC)", "setting": "RAW264.7 [25]", "result": 1.05}, {"measurement": "inhibition", "setting": "RAW264.7 [26]", "result": "Dose-dependent effect"}]}]}
